According to ChEMBL document CHEMBL4765487, “From a Designer Drug to the Discovery of Selective Cannabinoid Type 2 Receptor Agonists with Favorable Pharmacokinetic Profiles for the Treatment of Systemic Sclerosis” (J Med Chem, 2021):
Calls of active or inactive are those of the source. The calls are words filed in the database; no cut-off is given here.

Key:
Cannabinoid receptor 2 [1] = biological target: T1, Cannabinoid receptor 2 (Homo sapiens, UniProt P34972); experiment: Agonist activity at human CB2 receptor expressing CHO cells co-expressing Galpha16 by calcium mobilization assay; assay type: functional, cell-based
T1 sequence (P34972 whole entry): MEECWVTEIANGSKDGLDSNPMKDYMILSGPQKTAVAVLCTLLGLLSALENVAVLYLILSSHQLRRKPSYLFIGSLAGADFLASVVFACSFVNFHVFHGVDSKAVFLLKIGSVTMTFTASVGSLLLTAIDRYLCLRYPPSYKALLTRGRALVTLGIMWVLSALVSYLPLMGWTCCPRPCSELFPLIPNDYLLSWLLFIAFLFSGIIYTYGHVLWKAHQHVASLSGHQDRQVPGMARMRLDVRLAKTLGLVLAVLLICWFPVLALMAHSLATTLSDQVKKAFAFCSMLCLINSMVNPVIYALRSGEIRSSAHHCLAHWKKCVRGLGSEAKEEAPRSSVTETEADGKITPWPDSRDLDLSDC

[2] = Volume of distribution in BALB/c mouse at 1 mg/kg, iv measured during 0.083 to 24 hrs post dose by LC-MS/MS analysis; assay type: ADME, organism-based; conditions: in vivo, time 0.083-24 hrs
[3] = Half life in BALB/c mouse at 5 mg/kg, po measured during 0.083 to 24 hrs post dose by LC-MS/MS analysis; assay type: ADME, organism-based; conditions: in vivo, time 0.083-24 hrs
[4] = Oral bioavailability in BALB/c mouse at 5 mg/kg measured during 0.083 to 24 hrs post dose by LC-MS/MS analysis; assay type: ADME, organism-based; conditions: in vivo, time 0.083-24 hrs
Cannabinoid receptor 2 [5] = biological target: T1, Cannabinoid receptor 2; experiment: Agonist activity at human CB2 receptor expressed in HEK293 cells assessed as inhibition of forskolin-induced cAMP production incubated for 15 mins by cAMP HTRF assay; assay type: functional, cell-based
Cannabinoid receptor 2 [6] = biological target: T1, Cannabinoid receptor 2; experiment: Agonist activity at human CB2 receptor expressed in CHO cells assessed as increase in ERK1/2 Thr202/Tyr204 phosphorylation at 0.1 to 10 uM incubated for 15 mins by Western blot analysis; assay type: cell-based; conditions: filed as agonist, dose 0.1-10 µM
Cannabinoid receptor 1 [7] = biological target: T2, Cannabinoid receptor 1 (Homo sapiens, UniProt P21554); experiment: Agonist activity at human CB1 receptor expressed in HEK293 cells after 24 hrs by luciferase reporter gene assay based Tango beta-arrestin recruitment method; assay type: cell-based
T2 sequence (P21554 whole entry): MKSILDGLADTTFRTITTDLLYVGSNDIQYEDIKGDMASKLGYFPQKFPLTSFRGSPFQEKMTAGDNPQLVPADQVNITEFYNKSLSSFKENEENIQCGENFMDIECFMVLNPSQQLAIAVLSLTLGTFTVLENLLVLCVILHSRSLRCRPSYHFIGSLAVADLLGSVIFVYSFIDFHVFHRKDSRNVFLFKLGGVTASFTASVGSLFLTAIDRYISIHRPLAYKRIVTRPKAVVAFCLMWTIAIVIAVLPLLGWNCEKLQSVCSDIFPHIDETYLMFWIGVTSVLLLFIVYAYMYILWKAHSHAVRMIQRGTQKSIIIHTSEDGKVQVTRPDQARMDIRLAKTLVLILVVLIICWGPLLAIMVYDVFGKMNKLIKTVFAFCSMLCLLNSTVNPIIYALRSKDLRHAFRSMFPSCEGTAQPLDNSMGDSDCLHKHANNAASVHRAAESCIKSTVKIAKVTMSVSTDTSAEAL

[8] = biological target: T3, Glucose-dependent insulinotropic receptor (Homo sapiens) (UniProt Q8TDV5); experiment: Agonist activity at GPR119 (unknown origin) at 10 uM
T3 sequence (whole entry): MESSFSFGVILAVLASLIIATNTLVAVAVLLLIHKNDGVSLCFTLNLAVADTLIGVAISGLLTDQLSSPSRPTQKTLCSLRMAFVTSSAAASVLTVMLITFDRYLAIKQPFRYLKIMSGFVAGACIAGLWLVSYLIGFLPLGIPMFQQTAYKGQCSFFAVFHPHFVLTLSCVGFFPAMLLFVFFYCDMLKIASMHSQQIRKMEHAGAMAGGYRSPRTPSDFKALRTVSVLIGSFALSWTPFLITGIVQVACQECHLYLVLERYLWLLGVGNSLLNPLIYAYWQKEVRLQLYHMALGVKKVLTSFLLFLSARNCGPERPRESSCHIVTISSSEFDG

[9] = biological target: T4, Probable G-protein coupled receptor 132 (Homo sapiens) (UniProt Q9UNW8); experiment: Agonist activity at GPR132 (unknown origin) at 10 uM
T4 sequence (whole entry): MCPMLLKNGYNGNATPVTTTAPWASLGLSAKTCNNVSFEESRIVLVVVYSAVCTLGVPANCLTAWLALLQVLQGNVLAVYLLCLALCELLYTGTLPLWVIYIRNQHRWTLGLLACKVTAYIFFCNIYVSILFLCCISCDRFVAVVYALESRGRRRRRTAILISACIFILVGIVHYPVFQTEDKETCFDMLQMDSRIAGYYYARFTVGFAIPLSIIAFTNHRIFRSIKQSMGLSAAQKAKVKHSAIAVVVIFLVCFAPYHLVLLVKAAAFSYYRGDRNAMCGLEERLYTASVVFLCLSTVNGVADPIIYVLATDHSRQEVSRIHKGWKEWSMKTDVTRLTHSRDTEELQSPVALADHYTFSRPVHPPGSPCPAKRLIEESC

Cannabinoid receptor 1 [10] = biological target: T2, Cannabinoid receptor 1; experiment: Induction of receptor desensitization at human CB1 receptor expressing CHO cells co-expressing Galpha16 at 10 uM followed by washing with HBSS buffer upon incubation for 10 mins and restimulated with CP55940 by calcium mobilization assay; assay type: functional, cell-based; conditions: filed as agonist
Mus musculus [11] = experiment: Antifibrotic activity in BALB/c mouse model of BLM-induced systemic sclerosis assessed as reduction in dermal pathological symptoms at 1 to 5 mg/kg, sc dosed once daily for 4 weeks by H and E staining based analysis; assay type: functional, organism-based; conditions: dose 1-5 mg/kg
Mus musculus [12] = experiment: Antifibrotic activity in BALB/c mouse model of BLM-induced systemic sclerosis assessed as reduction in Col1alpha mRNA expression at 1 to 5 mg/kg, sc dosed once daily for 4 weeks by quantitative real-time PCR analysis; assay type: functional, organism-based; conditions: dose 1-5 mg/kg
Mus musculus [13] = experiment: Antifibrotic activity in BALB/c mouse model of BLM-induced systemic sclerosis assessed as reduction in alpha-SMA mRNA expression at 1 to 5 mg/kg, sc dosed once daily for 4 weeks by quantitative real-time PCR analysis; assay type: functional, organism-based; conditions: dose 1-5 mg/kg
in vitro = conditions: human, liver

SMILES: CC(C)(CO)NC(=O)c1cc(C(C)(C)C)n(-c2ccc(C(F)(F)F)cn2)n1
- EC50 (Cannabinoid receptor 2 [1]): 15.2 nM
- Vd [2]: 4.5 L/kg
- half-life [3]: 2.18 h
- bioavailability [4]: 79.5%
- EC50 (Cannabinoid receptor 2 [5]): 10.7 nM
- Activity (Cannabinoid receptor 2 [6]): Active
- EC50 (Cannabinoid receptor 1 [7]): > 10000 nM
- Activity [8]: inactive
- Activity [9]: inactive
- Activity (Cannabinoid receptor 1 [10]): Active
- Activity (Mus musculus [11]): Active
- Activity (Mus musculus [12]): Active
- Activity (Mus musculus [13]): Active
- CLint scaled at 1 µM (in vitro): 11.1 mL/min/kg
